{
  "source": "patent US20100081862A1",
  "about": "“Composition and method to modify sperm function and increase male gender ratio in mammals” (priority 2008, published 2010)",
  "origin": "cited, not measured here",
  "key": {"[1]": {"system": "Hexose Monophosphate Shunt (HMS)", "settings": "bovine oocytes"}, "[2]": {"system": "early-staged mouse embryos", "settings": "living early-staged mouse embryos, transplanted to produce normal living offspring"}},
  "data": [
    {"smiles": "CCN(CC)c1cc2c(cc1C)Nc1ccc(N)cc1O2", "note": "[BCB, 2-methyl-3-diethylamino-7-amino phenoxazine]", "values": [
      {"measurement": "increase in oxidation of glucose through the HMS", "setting": "[1]", "value": 15, "unit": "fold"},
      {"measurement": "increase in glucose metabolism through glycolysis", "setting": "[1]; compared with the increase through the HMS", "value": "somewhat less increase"},
      {"measurement": "toxicity of BCB and its metabolites", "setting": "[2]", "value": "relatively non-toxic"}
    ]}
  ]
}
